Holding throughout (assay type): functional
The test system of experiment [1] is Mycobacterium tuberculosis. Briefly: Potentiation of isoniazid-induced antimycobacterial activity against Mycobacterium tuberculosis H37Rv assessed as reduction in isoniazid MIC at 250 uM incubated for 48 hrs by alamar blue staining based analysis. Background: Resazurin is reduced to fluorescent resorufin, in cell work by metabolically active cells.
For experiment [2], the system named is Mycobacterium tuberculosis. Kind of experiment: Potentiation of isoniazid-induced antimycobacterial activity against Mycobacterium tuberculosis H37Rv assessed as reduction in isoniazid MIC at 125 uM incubated for 48 hrs by alamar blue staining based analysis.
Experiment [3] concerns Staphylococcus aureus. Kind of experiment: Potentiation of Norfloxacin-induced antibacterial activity against Staphylococcus aureus 1199B overexpressing NorA efflux pump assessed as fold reduction in norfloxacin MIC by microdilution method. A general note: Dilution methods test growth across graded concentrations, often in twofold steps.
Experiment [4] concerns Staphylococcus aureus. Kind of experiment: Potentiation of ethidium bromide-induced antibacterial activity against Staphylococcus aureus 1199B overexpressing NorA efflux pump assessed as fold reduction in ethidium bromide MIC by microdilution method.
Experiment [5] has as its system Staphylococcus aureus. Kind of experiment: Potentiation of Norfloxacin-induced antibacterial activity against Staphylococcus aureus 1199B overexpressing NorA efflux pump assessed as norfloxacin MIC by microdilution method.
Experiment [6] concerns Staphylococcus aureus. Kind of experiment: Potentiation of ethidium bromide-induced antibacterial activity against Staphylococcus aureus 1199B overexpressing NorA efflux pump assessed as ethidium bromide MIC by microdilution method.
For experiment [7], the system named is Mycolicibacterium smegmatis. Kind of experiment: Potentiation of cefotaxime-induced antimycobacterial activity against Mycobacterium smegmatis assessed as cefotaxime MIC at 9 ug/ml (reference value: 128 ug/ml). As to conditions: dose 9 µg/ml.
The subject of experiment [8] is Escherichia coli. Briefly: Antibacterial activity against Escherichia coli CCUG assessed as growth inhibition incubated for 18 hrs by broth microdilution method.
The test system of a further experiment is Klebsiella pneumoniae. Kind of experiment: Antibacterial activity against Klebsiella pneumoniae ATCC 13833 assessed as growth inhibition incubated for 18 hrs by broth microdilution method.
Experiment [9] has as its system Staphylococcus epidermidis. Kind of experiment: Antibacterial activity against Staphylococcus epidermidis ATCC 14990 assessed as growth inhibition incubated for 18 hrs by broth microdilution method.
Experiment [10] relates to Enterococcus faecalis. Briefly: Antibacterial activity against Enterococcus faecalis ATCC 29212 assessed as growth inhibition incubated for 18 hrs by broth microdilution method.
The test system of a further experiment is Acinetobacter baumannii. Kind of experiment: Antibacterial activity against Acinetobacter baumannii ATCC 17978 assessed as growth inhibition incubated for 18 hrs by broth microdilution method.
The test system of experiment [11] is Pseudomonas aeruginosa. Briefly: Antibacterial activity against Pseudomonas aeruginosa ATCC 27853 assessed as growth inhibition incubated for 18 hrs by broth microdilution method.
The subject of experiment [12] is Staphylococcus aureus. Kind of experiment: Antibacterial activity against Staphylococcus aureus ATCC 25923 assessed as growth inhibition incubated for 18 hrs by broth microdilution method.
Experiment [13] concerns Bacillus subtilis. Briefly: Antibacterial activity against Bacillus subtilis ATCC 6633 assessed as growth inhibition incubated for 18 hrs by broth microdilution method.
Experiment [14] has as its system Staphylococcus aureus. Briefly: Antibacterial activity against multidrug-resistant Staphylococcus aureus ATCC 33591 assessed as inhibition of bacterial growth incubated for 24 hrs by microplate reader analysis.
Experiment [15] concerns Enterococcus faecalis. Briefly: Antibacterial activity against Enterococcus faecalis assessed as inhibition of bacterial growth measured after 24 hrs.
Experiment [16] has as its system Bacillus subtilis. Briefly: Antibacterial activity against Bacillus subtilis CMCC 63501 assessed as inhibition of bacterial growth incubated for 24 hrs by microplate reader analysis.
Experiment [17] concerns Staphylococcus aureus. Kind of experiment: Antibacterial activity against Staphylococcus aureus CMCC 25923 assessed as inhibition of bacterial growth incubated for 24 hrs by microplate reader analysis.
For experiment [18], the system named is Pseudomonas aeruginosa. Briefly: Antibacterial activity against Pseudomonas aeruginosa CMCC 27853 assessed as inhibition of bacterial growth incubated for 24 hrs by microplate reader analysis.
The subject of experiment [19] is Staphylococcus aureus. Kind of experiment: Antibacterial activity against multidrug-resistant Staphylococcus aureus ATCC 43300 assessed as inhibition of bacterial growth incubated for 24 hrs by microplate reader analysis.
Experiment [20] deals with Staphylococcus aureus. Kind of experiment: Antibacterial activity against Staphylococcus aureus assessed as inhibition of bacterial growth measured after 24 hrs.
For experiment [21], the system named is Staphylococcus aureus. Kind of experiment: Antibacterial activity against Staphylococcus aureus CMCC (B) 26003 assessed as inhibition of bacterial growth incubated for 24 hrs by microplate reader analysis.
Experiment [22] concerns Enterococcus faecalis. Briefly: Antibacterial activity against Enterococcus faecalis CMCC 29212 assessed as inhibition of bacterial growth incubated for 24 hrs by microplate reader analysis.
The subject of experiment [23] is Bacillus subtilis. Kind of experiment: Antibacterial activity against Bacillus subtilis assessed as inhibition of bacterial growth measured after 24 hrs.
Experiment [24] relates to Escherichia coli. Kind of experiment: Antibacterial activity against Escherichia coli CMCC 44568 assessed as inhibition of bacterial growth incubated for 24 hrs by microplate reader analysis.
For experiment [25], the system named is Escherichia coli. Briefly: Antibacterial activity against Escherichia coli CMCC 25922 assessed as inhibition of bacterial growth incubated for 24 hrs by microplate reader analysis.
The next experiment relates to Streptococcus mutans. Briefly: Antibacterial activity against Streptococcus mutans BNCC 336931 assessed as inhibition of bacterial growth incubated for 24 hrs by microplate reader analysis.
Experiment [26] concerns Pseudomonas aeruginosa. Kind of experiment: Antibacterial activity against Pseudomonas aeruginosa CMCC 10104 assessed as inhibition of bacterial growth incubated for 24 hrs by microplate reader analysis.
For experiment [27], the system named is Pseudomonas aeruginosa. Briefly: Antibacterial activity against multidrug-resistant Pseudomonas aeruginosa ATCC BAA-2111 assessed as inhibition of bacterial growth incubated for 24 hrs by microplate reader analysis.
Experiment [28] has as its system Mycobacterium tuberculosis. Briefly: Anti-mycobacterial activity against Mycobacterium tuberculosis H37Rv ATCC […] assessed as bacterial growth inhibition by alamar blue assay.
In experiment [29] the test system is Staphylococcus aureus. Kind of experiment: Antibacterial activity against methicillin-resistant Staphylococcus aureus ATCC 33591 assessed as bacterial growth inhibition by CLSI based broth microdilution method.
For experiment [30], the system named is Staphylococcus aureus. Briefly: Antibacterial activity against Staphylococcus aureus assessed as bacterial growth inhibition incubated for 24 hrs.
The subject of experiment [31] is Mycobacterium tuberculosis. Briefly: Anti-mycobacterial activity against Mycobacterium tuberculosis H37Rv ATCC 27294 assessed as bacterial growth inhibition incubated for 7 days by resazurin dye based assay. As to conditions: H37Rv ATCC 27294, 168 h, time 7 day.
The subject of experiment [32] is Plasmodium vinckei petteri. Briefly: Antimalarial activity against Plasmodium vinckei petteri 279BY infected in Swiss mouse assessed as reduction in parasitemia administered intraperitoneally once daily for 4 consecutive days and measured on day 5. As to conditions: 120 h, route ip, time 5 day.
The test system of experiment [33] is Plasmodium vinckei petteri. Briefly: Antimalarial activity against Plasmodium vinckei petteri 279BY infected in Swiss mouse assessed as reduction in parasitemia administered orally once daily for 4 consecutive days and measured on day 5. As to conditions: 120 h, route po, time 5 day.
The test system of experiment [34] is Escherichia coli. Kind of experiment: Antibacterial activity against Escherichia coli assessed as bacterial growth inhibition incubated for 24 hrs.
In experiment [35] the test system is Mycobacterium tuberculosis. Kind of experiment: Antibacterial activity against Mycobacterium tuberculosis H37Rv assessed as bacterial growth inhibition by vertical diffusion method.

For orientation: MIC means the lowest concentration found to suppress growth. As a reminder, the ED50 is the midpoint of the dose-response relation.

Values after ≈ are worked out from the molar mass of the structure shown.

With `CCCCCCc1ccc(-c2c[nH]c(N)n2)cc1`, the MIC in experiment [1] and in experiment [2] was 0.039 µg/mL throughout.

For `Cl.N#Cc1ccc(/C=N/NC(=N)N)cc1`, the “fold change (FC)” value was “<=16” in the experiment with Staphylococcus aureus [3] and “<=32” in the experiment with Staphylococcus aureus [4].

With `Cl.N=C(N)N/N=C/c1ccnc2ccccc12`, the MIC stood at 8 µg/mL with Staphylococcus aureus [5] and 1 µg/mL with Staphylococcus aureus [6]. For the same compound, the results for the “fold change (FC)” value in the experiment on Staphylococcus aureus [3] and in the experiment on Staphylococcus aureus [4] were “<=16” and “<=32”, respectively.

Consider `CCCCCc1ccc(C(=O)Nc2ccc3c(c2)nc(N)n3CCCc2ccccc2)cc1`, for which the MIC in experiment [7] was found to be 1 µg/mL.

For `Cl.NC(N)=N/N=C/c1ccc(Cl)c(Cl)c1`, the “fold change (FC)” value is reported as “<=16” in the experiment on Staphylococcus aureus [3] and “<=32” in the experiment with Staphylococcus aureus [4].

On to `N=C(N)NCCCCCCCCN(CCCCCCCCNC(=N)NCC1CC1)C(=O)N(CCCCCCCCNC(=N)N)CCCCCCCCNC(=N)NCC1CC1`, for which the MIC (in the experiment on Escherichia coli [8]; in the experiment on Klebsiella pneumoniae; in [9]; in the experiment with Enterococcus faecalis [10]; in the experiment with Acinetobacter baumannii; in the experiment on Pseudomonas aeruginosa [11]) was 0.5 µg/mL (≈ 0.591 µM) each time. For the same compound, the MIC in the experiment with Staphylococcus aureus [12] and in the experiment with Bacillus subtilis [13] was 0.5 µg/mL (≈ 0.591 µM) in each case.

In the case of `N=C(N)N/N=C/c1ccc(C#Cc2ccc(Cl)cc2)cc1`, the MIC in the experiment with Staphylococcus aureus [14], with Enterococcus faecalis [15], in the experiment on Bacillus subtilis [16], in the experiment with Staphylococcus aureus [17], in the experiment on Pseudomonas aeruginosa [18] and in the experiment with Staphylococcus aureus [19] was 0.25 µg/mL (≈ 0.842 µM) each time. The MIC in the experiment on Staphylococcus aureus [20], with Staphylococcus aureus [21], in the experiment on Enterococcus faecalis [22], in the experiment on Bacillus subtilis [23], in the experiment with Escherichia coli [24] and in the experiment with Escherichia coli [25] was 0.25 µg/mL (≈ 0.842 µM) in each case. Also, the MIC in the experiment on Streptococcus mutans, in the experiment on Pseudomonas aeruginosa [26] and in the experiment on Pseudomonas aeruginosa [27] was 0.25 µg/mL (≈ 0.842 µM) each time.

Consider `Cc1ccc(-n2nc(C)c3c(-c4c(C)nn(-c5ccccc5)c4Cl)nc(N)nc32)cc1`, for which, in experiment [28], the MIC amounted to 1.2 µg/mL (≈ 2.79 µM).

Consider `N=C(N)NC[C@H]1OC(O[C@H]2C(NC(=O)[C@H](O)CCN)C[C@H](N)[C@@H](O[C@H]3O[C@H](CN)[C@@H](O)[C@H](O)[C@H]3O)[C@@H]2O)[C@H](O)[C@@H](N)[C@@H]1O` (stereo not given in full), for which the MIC in the experiment with Staphylococcus aureus [29] amounted to 3.12 µg/mL (≈ 4.99 µM).

With `Cl.N=C(N)NCCCNC(=O)C(=O)c1cc(Cl)ccc1NC(=O)c1ccc2ccccc2c1`, the MIC in the experiment on Staphylococcus aureus [30] stood at 8 µg/mL.

Take `N=C(N)NCCNC(=O)c1cc2c([nH]c3ccccc32)c(-c2ccc(O)cc2)n1`: the MIC in [31] is 27.8 µg/mL (≈ 71.6 µM).

Regarding `Cn1oc(=O)n(CCCCCCCCCCCCn2c(=O)on(C)c2=O)c1=N`, the ED50 in experiment [32] came out at 4 mg/kg; in experiment [33], 82 mg/kg.

On to `Cl.N=C(N)NCCCNC(=O)C(=O)c1cc(Br)ccc1NC(=O)c1ccc2ccccc2c1`, for which, in the experiment with Staphylococcus aureus [30], the MIC was determined as 6 µg/mL.

Regarding `COC(=O)C(CCCCNC(=N)N)NC(=O)C(=O)c1ccccc1NC(=O)c1ccc2ccccc2c1.Cl` (stereo not given), in the experiment with Escherichia coli [34], the MIC is 17 µg/mL.

Take `Cc1nn(-c2ccccc2)c(Cl)c1-c1nc(N)nc2c1c(C)nn2-c1ccc(S(=O)(=O)O)cc1Cl`: the MIC in [28] amounted to 1.2 µg/mL (≈ 2.26 µM).

Regarding `Cc1nn(-c2ccccc2)c(Cl)c1-c1nc(N)nc2c1c(C)nn2-c1cccc(Cl)c1`, the MIC in experiment [28] worked out at 1.2 µg/mL (≈ 2.66 µM).

With `N=C(N)Nc1nnc2nccn2n1`, the MIC in [35] stood at 1.5 µg/mL (≈ 8.42 µM).

For the origin of these results see ChEMBL document CHEMBL5149974, “Antimicrobial drugs bearing guanidine moieties: A review” (Eur J Med Chem, 2021).
